# Measured values taken from US10980769B2, “Tiglien-3-one derivatives” (QBIOTICS PTY LTD, priority 2005, dated 2021).
# Entries after “also recorded” stand apart in the source; their conditions may differ.
# Key:
# Haemonchus contortus = assay: NemaTOX (Ne) anthelmintic larval development bioassay
# Method: NemaTOX (alternatively referred to herein as Ne) is an anthelmintic bioassay, applicable to all parasitic nematodes with free-living life cycle stages, and can be used as a screen to detect activity and define the species spectrum of compounds against parasitic nematodes and examine the impact of pre-existing resistance to other anthelmintic classes on potency. Haemonchus contortus was utilised for this assay.
# The effect on larval development was determined in this assay by the method described by Gill et al. (1995) Int. J. Parasitol. 25: 463-470. Briefly, in this assay nematode eggs were applied to the surface of an agar matrix containing the test sample and allowed to develop through to the L3, infective stage (6 days). At this time the stage of larval development reached and any unusual features (deformity, paralysis, toxicity) were noted by microscopic examination.
# Bacillus subtilis = assay: ProTOX (Bs) antibacterial bioassay; type: cell-based
# Source text: ProTOX, (alternatively referred to herein as Bs) is an antibacterial bioassay, broadly applicable to most aerobic and anaerobic bacteria. The bioassay features a solid phase agar base into which the test compound has been incorporated together with a chromogen. As the bacteria multiply in the well, the chromogen is metabolised from blue in a two-step process to a colourless compound. Compounds with potent bactericidal activity inhibit bacterial metabolism of the chromogen while bacteriostatic compounds induce limited metabolism as indicated by an intermediate pink colour. ProTOX is broadly applicable to a range of gram-positive and gram-negative bacteria under aerobic and microaerophilic conditions. ProTOX assays were carried out using Bacillus subtilis.
# Briefly, in ProTOX, the bacteria (24 hour broth) were applied to the surface of an agar matrix containing the test sample and allowed to grow for 48 hours. The assay was monitored at 24 and 48 hours and the active wells noted. Known antibiotics yield consistent colour transitions which are concentration and time dependent. These patterns provide an important guide to the early recognition of interesting characteristics.
# Trichophyton rubrum = assay: MycoTOX (Tr) antifungal bioassay; type: cell-based
# Method: MycoTOX (alternatively referred to herein as Tr) is a non-chromogenic bioassay used to detect activity against filamentous fungal pathogens of plants and animals. The bioassay features a solid phase agar base into which the test compound has been incorporated. As the growth patterns of filamentous fungi are readily apparent on the agar surface the extent of mycelial growth, sporulation (if relevant to the species under investigation) and colour changes with maturation are measured.
# MycoTOX, involves a fungus (spore suspension or mycelial fragments) being applied to the surface of an agar matrix containing the test chemical and allowed to grow for a period of up to a week (depending on species). The assay is monitored at two discrete times to identify key development phases in the life cycle (for example mycelial growth and extent of sporulation) and the active wells noted. The monitoring times are dependent on the fungal species under investigation.
# The MycoTOX assays were carried out using Trichophyton rubrum. The MycoTOX test is alternatively referred to as Tr to indicate the use of Trichophyton rubrum.
# [1] = tested on: NS1 murine myeloma cell line; assay: CyTOX (Cy) chromogenic cytotoxicity bioassay; type: cell-based; conditions: for Cy LD99: weight of chemical in last well with activity, real value may be lower
# Source text: CyTOX (alternatively referred to herein as Cy) is a microtitre plate bioassay use to identify potential antitumour actives. CyTOX is a chromogenic bioassay with broad application to a wide range of tumour and non-tumour cell lines.
# CyTOX features a liquid media into which the test compound has been incorporated together with a novel chromogen. As the cells grow and divide the chromogen is metabolised from purple in a single step process to a colourless metabolite. CyTOX was undertaken using NS1 murine myeloma cell line as a guide to mammalian cell toxicity.
# Briefly, in CyTOX the cells were applied to the media containing the test chemical and allowed to grow for 72 hours. The assay was monitored at 24, 48 and 72 hours and the active wells identified.
# PKC = PKC activation in cultured tumour cells (scattering and growth inhibition of MCF7); type: cell-based, human; conditions: defined by scattering and growth inhibition of MCF7 breast cancer cells
# fly eggs = assay: DipteraTOX fly development bioassay; parameters: key: A value of A in DipG, Dip P or Dip H represents very active; a value of P represents active; conditions: 250 μg per mL in agar
# Method: DipteraTOX is referred to herein as DipG, DipP and DipH. DipG represents no grazing of larva. DipP represents no pupae formation and Dip H represents no hatching of flies. A value of A in DipG, Dip P or Dip H represents very active and a value of P represents active. In DipteraTox the fly eggs were applied to the surface of an agar matrix containing 250 μg per mL of the test chemical and allowed to hatch, develop and pupate for a period up of two weeks. The assay was monitored at two discrete times to determine the extent of grazing of the agar matrix at Week 1 and the presence of adult flies at Week 2.
# human melanoma MM418c5 = assay: Growth inhibition of cultured cells; type: cell-based
# Method: (§1) Briefly, a range of tumour cells including mouse melanoma, human melanoma, mouse squamous cell carcinoma, human breast, human colon, human leukemia and human lung and normal human cells including normal human fibroblasts were seeded at 2-5,000 per microtitre well (96-well plate) in 10% FCS-RPMI 1640 culture medium, treated, and allowed to grow until the controls were nearly confluent (5-6 days). The wells were then washed twice with PBS, fix with ethanol for a minimum of 5 minutes and washed with water. SRB solution (50 μL of 0.4% in 1% acetic acid) was added and left at room temperature for a minimum of 15 minutes. The plate was washed rapidly with tap water and then twice with 1% acetic acid. After addition of 100 μL/well of 10 mM Tris base (unbuffered, pH>9), plates were left for a minimum of 5 minutes, then the absorbance was read at 564 nm on the ELISA reader, with a 3 second prior shaking. After subtraction of a blank (wells with no cells, absorbance typically about 0.04), growth inhibition was calculated as % of the untreated control and plotted against dose.
# (§2) Briefly, a suspension of a range of tumour cells including mouse melanoma, human melanoma, mouse squamous cell carcinoma, human breast, human colon, human leukemia and human lung and normal human cells including normal human fibroblasts were seeded into round-bottom microtitre plates in 10% FCS-RPMI 1640 culture medium, treated and allowed to grow for 5-6 days. To measure cell growth, 20 μL of a combined MTS/PMS solution (Promega Cell ProliferationAssay Kit Cat #G5430) was added to each well of the 96 well assay plate. After 1-4 hours the plates were placed in the ELISA plate reader and the absorbance read at 490 nm. After subtraction of a blank (wells with no cells, absorbance typically about 0.4), growth inhibition was calculated as % of the untreated control and plotted against dose.
# human prostate DU145 = assay: Growth inhibition of cultured cells; type: cell-based
# Method: as §1, §2
# human breast MCF-7 = assay: Growth inhibition of cultured cells; type: cell-based; conditions: human breast MCF-7
# Method: as §1, §2
# (§3) For growth inhibition assays, cells (2000-5000/well) were seeded in 96-well plates in duplicate, treated with drug next day and allowed to grow for a further 5-6 days. The plates were then washed in PBS (phosphate buffered saline, pH 7.2), fixed with ethanol and stained by addition of 50 μL 0.4% SRB (sulforhodamine) in 1% acetic acid. The plate was left at room temperature for a minimum of 15 minutes, then washed rapidly with tap water and then twice with 1% acetic acid. After addition of 100 μL/well of 10 mM Tris base (unbuffered, pH>9), plates were left for a minimum of 5 minutes, then the absorbance was read at 564 nm on the ELISA reader, with a 3 second prior shaking. After subtraction of a blank (wells with no cells, typically about 0.04), growth inhibition was calculated as % of the untreated control and plotted against dose.
# human leukemia K562 = assay: Growth inhibition of cultured cells; type: cell-based
# Method: as §1, §2, §3
# [2] = tested on: normal human fibroblasts (NFF); assay: Growth inhibition of cultured cells; type: cell-based
# Method: as §1, §2, §3
# Giardia spp. = assay: TriTOX (Gi) anti-protozoan bioassay; type: cell-based
# Method: is a microtitre plate based chromogenic bioassay for the screening of anti-protozoan activity of pathogenic, anaerobic/microaerophilic protozoans for example Giardia spp. and Trichomonas spp. The bioassays are run under anaerobic conditions and features species specific chromogens. The minimum inhibitory concentrations (approximate LD99) are determined by the following method: stock solutions of the unknowns are serially diluted ½ to give 12 concentrations over a 2,048-fold range. Aliquots of each concentration(s) are applied to the wells of 96-well microtitre plates and diluted with media. […] The lowest concentration at which the compound is active is noted as the minimum inhibitory concentration (MIC). Additionally, microscopic inspection is carried out to identify any patterns of morphological change that may be consistent with a type of toxicity and therefore mode of action. Giardia spp. was utilized for this assay.
# [3] = tested on: K562 leukemia, MCF-7 breast cancer, Colo-205 colon cancer and D04 and SKMel-5 melanoma; assay: In vitro growth inhibition profile, sensitive versus other cell lines; type: cell-based, human
# Method: In addition, scattering of MCF-7 and HT-29 colon tumour cells was observed, typical of PKC activators. […] Additionally, given their similarity in structure, EBI-47, EBI-59 and EBI-61 are also considered to be protein kinase C activators.
# as §3, with “dose. […]” for “dose.”
# MM96L cell line = assay: Changes in morphology of cultured cells; type: cell-based, human
# MCF-7 = assay: Cell scattering of cultured cells; type: cell-based, human
# [4] = weight of chemical in last well with activity, real value may be lower
Molecule,Ne Titre (Haemonchus contortus),Bs Titre (Bacillus subtilis),Tr Titre (Trichophyton rubrum),Cy Titre [1],Cy LD99 [1] [µg/mL],PKC activity (PKC),DipH (no hatching of flies) (fly eggs),DipP (no pupae formation) (fly eggs),Concentration of EB548.LA4.61-29/32 At which growth inhibition was observed (human melanoma MM418c5) [µg/mL],Concentration of EB548.LA4.61-29/32 At which growth inhibition was observed (human prostate DU145) [µg/mL],Ne LD99 (Haemonchus contortus; [4]) [µg/mL],Concentration of EB548.LA4.61-29/32 At which growth inhibition was observed (human breast MCF-7) [µg/mL],Concentration of EB548.LA4.61-29/32 At which growth inhibition was observed (human leukemia K562) [µg/mL],Concentration of EB548.LA4.61-29/32 At which growth inhibition was observed [2],Gi Titre (Giardia spp.),Gi LD99 (Giardia spp.; [4]) [µg/mL],growth-inhibiting doses in sensitive cell lines lower than for other human tumour cell lines and normal human fibroblasts [3],change in morphology of MM96L cells (MM96L cell line),scattering of MCF-7 cells (MCF-7)
"CCCCC/C=C/C=C/C=C/C(=O)OC1C(C)C2(O)C(C3OC3(CO)C(O)C3(O)C(=O)C(C)=CC32)C2C(C)(C)C12OC(=O)C(C)CC (centres unmarked) [EBI-59, 12-(dodeca-2,4,6-trienoyl)-13-(2-methylbutanoyl)-6,7-epoxy-4,5,9,12,13,20-hexahydroxy-1-tigliaen-3-one]",0/—,0/—,0/—,16,3.9,yes,A/A,A/A,–,–,–,–,–,–,–,–,–,–,–
"CCC(C)C(=O)OC1C(C)C2(O)C(C3OC3(CO)C(O)C3(O)C(=O)C(C)=CC32)C2C(C)(C)C12OC(=O)C(C)CC (centres unmarked) [EBI-47, 12,13-di-(2-methylbutanoyl)-6,7-epoxy-4,5,9,12,13,20-hexahydroxy-tigliaen-3-one]",2,0/—,0/—,4,16,yes,P,–,0.03,10,31,0.03,0.1,None observed at 10 μg/mL,2,31,–,–,–
"tetradecanoyl phorbol acetate [TPA, reference compound]",–,–,–,–,–,–,–,–,–,–,–,–,–,–,–,–,approximately 100 fold,characteristic change to bipolar morphology; also recorded: extreme bipolar morphology,scattering
